Measured values as given in US11180504B2 (ORCHID PHARMA LTD., priority 2016, dated 2021).
In brackets after ≈: the same amount, converted by molar mass.

Columns and labels:
[1] = tested on: carbapenem sensitive Escherichia coli; test: MIC by broth micro-dilution (CLSI), carbapenem sensitive E. coli; type: cell-based; settings: Escherichia coli, ATCC25922, ESBL −ve E. coli ATCC25922; read-out: MIC
[2] = tested on: carbapenem sensitive Pseudomonas aeruginosa; test: MIC by broth micro-dilution (CLSI), carbapenem sensitive P. aeruginosa; type: cell-based; settings: Pseudomonas aeruginosa, ATCC27853, Meropenem susceptible P. aeruginosa ATCC27853; read-out: MIC
[3] = tested on: carbapenemase producing K. pneumoniae; test: MIC by broth micro-dilution (CLSI), carbapenemase producing K. pneumoniae; type: cell-based, Klebsiella pneumoniae; settings: Klebsiella pneumoniae, ATCCBAA1705, KPC-2 K. pneumoniae ATCC BAA-1705; read-out: MIC
[4] = tested on: extended spectrum β lactamase (ESBL) SHV18 producing Klebsiella pneumoniae; test: MIC by broth micro-dilution (CLSI), ESBL SHV18 producing K. pneumoniae; type: cell-based; settings: Klebsiella pneumoniae, ATCC700603, 22 h, ESBL +ve (SHV-18) K. pneumoniae ATCC700603; read-out: MIC
[5] = tested on: methicillin-sensitive Staphylococcus aureus; test: MIC by broth micro-dilution (CLSI), methicillin-sensitive S. aureus; type: cell-based; settings: Staphylococcus aureus, ATCC 29213 / MSSA, MSSA S. aureus ATCC29213; read-out: MIC

| Compound | MIC [1] [µg/mL] | MIC [2] [µg/mL] | MIC [3] [µg/mL] | MIC [4] [µg/mL] | MIC [5] [µg/mL] |
| --- | --- | --- | --- | --- | --- |
| C[C@@H](NC(=O)C(=O)N(C)C)[C@H]1C(=O)N2C(C(=O)O)=C(S[C@@H]3CN[C@H](C(=O)N(C)C)C3)[C@H](C)[C@H]12 [Example 66] | 2 (≈ 4.15 µM) | > 128 | 4 to 8 (≈ 8.31 to 16.6 µM) | 8 (≈ 16.6 µM) | 8 (≈ 16.6 µM) |
| CC(C)C[C@H](O)C(=O)N[C@H](C)[C@H]1C(=O)N2C(C(=O)O)=C(S[C@@H]3CN[C@H](C(=O)N(C)C)C3)[C@H](C)[C@H]12 [Example 67] | 8 (≈ 16.1 µM) | > 128 | > 128 | > 128 | 4 (≈ 8.05 µM) |
| C[C@H](N)C(=O)N[C@H](C)[C@H]1C(=O)N2C(C(=O)O)=C(S[C@@H]3CN[C@H](C(=O)N(C)C)C3)[C@H](C)[C@H]12 [Example 68] | 4 (≈ 8.82 µM) | 32 to 64 (≈ 70.6 to 141 µM) | > 128 | 8 (≈ 17.6 µM) | 32 (≈ 70.6 µM) |
| C[C@@H](NC(=O)CNS(C)(=O)=O)[C@H]1C(=O)N2C(C(=O)O)=C(S[C@@H]3CN[C@H](C(=O)N(C)C)C3)[C@H](C)[C@H]12 [Example 70] | 4 (≈ 7.73 µM) | > 128 | 16 (≈ 30.9 µM) | 8 (≈ 15.5 µM) | 16 (≈ 30.9 µM) |
| C[C@@H](NC(=O)[C@@H](N)Cc1ccccc1)[C@H]1C(=O)N2C(C(=O)O)=C(S[C@@H]3CN[C@H](C(=O)N(C)C)C3)[C@H](C)[C@H]12 [Example 71] | 16 (≈ 30.2 µM) | > 128 | 64 (≈ 121 µM) | 128 (≈ 242 µM) | 8 (≈ 15.1 µM) |
| C[C@@H](NC(=O)[C@H](N)Cc1ccccc1)[C@H]1C(=O)N2C(C(=O)O)=C(S[C@@H]3CN[C@H](C(=O)N(C)C)C3)[C@H](C)[C@H]12 [Example 72] | 32 (≈ 60.4 µM) | > 128 | > 128 | > 128 | 32 (≈ 60.4 µM) |
| CC(C)OC(=O)C(=O)N[C@H](C)[C@H]1C(=O)N2C(C(=O)O)=C(S[C@@H]3CN[C@H](C(=O)N(C)C)C3)[C@H](C)[C@H]12 [Example 73] | 1 to 2 (≈ 2.01 to 4.03 µM) | 4 to 16 (≈ 8.05 to 32.2 µM) | 8 (≈ 16.1 µM) | 4 (≈ 8.05 µM) | 4 (≈ 8.05 µM) |

More lines, now with the values ahead:

| MIC [1] [µg/mL] | MIC [2] [µg/mL] | MIC [3] [µg/mL] | MIC [4] [µg/mL] | MIC [5] [µg/mL] | Compound |
| --- | --- | --- | --- | --- | --- |
| 1 to 2 (≈ 2.13 to 4.27 µM) | 8 (≈ 17.1 µM) | 4 (≈ 8.54 µM) | 1 to 2 (≈ 2.13 to 4.27 µM) | 8 to 16 (≈ 17.1 to 34.1 µM) | COC(=O)C(=O)N[C@H](C)[C@H]1C(=O)N2C(C(=O)O)=C(S[C@@H]3CN[C@H](C(=O)N(C)C)C3)[C@H](C)[C@H]12 [Example 74] |
| 1 (≈ 2.14 µM) | > 128 | 16 (≈ 34.2 µM) | 8 (≈ 17.1 µM) | 4 (≈ 8.56 µM) | CNC(=O)C(=O)N[C@H](C)[C@H]1C(=O)N2C(C(=O)O)=C(S[C@@H]3CN[C@H](C(=O)N(C)C)C3)[C@H](C)[C@H]12 [Example 75] |
| 1 (≈ 1.86 µM) | > 128 | 8 (≈ 14.9 µM) | 8 (≈ 14.9 µM) | 2 (≈ 3.73 µM) | C[C@@H](NC(=O)C(F)F)[C@H]1C(=O)N2C(C(=O)O)=C(S[C@@H]3CN[C@H](C(=O)N4CCC(F)(F)CC4)C3)[C@H](C)[C@H]12 [Example 76] |
| 0.5 to 1 (≈ 0.995 to 1.99 µM) | 32 to 64 (≈ 63.7 to 127 µM) | 4 (≈ 7.96 µM) | 1 (≈ 1.99 µM) | 4 to 8 (≈ 7.96 to 15.9 µM) | C[C@@H](NC(=O)C(F)F)[C@H]1C(=O)N2C(C(=O)O)=C(S[C@@H]3CN[C@H](C(=O)N4CC[C@H](O)C4)C3)[C@H](C)[C@H]12 [Example 77] |
| 1 (≈ 1.99 µM) | 128 (≈ 255 µM) | > 128 | 2 (≈ 3.98 µM) | 8 (≈ 15.9 µM) | C[C@@H](NC(=O)CS(C)(=O)=O)[C@H]1C(=O)N2C(C(=O)O)=C(S[C@@H]3CN[C@H](C(=O)N(C)C)C3)[C@H](C)[C@H]12 [Example 78] |
| 32 (≈ 64.2 µM) | > 128 | > 128 | > 128 | 4 (≈ 8.02 µM) | CC(C)C[C@@H](F)C(=O)N[C@H](C)[C@H]1C(=O)N2C(C(=O)O)=C(S[C@@H]3CN[C@H](C(=O)N(C)C)C3)[C@H](C)[C@H]12 [Example 79] |
| 4 | > 128 | 64 | 32 | 4 | C[C@@H](NC(=O)C(F)F)[C@H]1C(=O)N2C(C(=O)O)=C(S[C@@H]3CNC(C[N+]4(C)CCCC4)C3)[C@H](C)[C@H]12 (stereo partly drawn) [Example 80] |
| 1 (≈ 2.12 µM) | 64 (≈ 135 µM) | 8 (≈ 16.9 µM) | 8 (≈ 16.9 µM) | 1 (≈ 2.12 µM) | C[C@@H](NC(=O)C(F)F)[C@H]1C(=O)N2C(C(=O)O)=C(S[C@@H]3CNC(CN4CCCC4)C3)[C@H](C)[C@H]12 (stereo partly drawn) [Example 81] |
